The supplement of paper PMC10307832

Experiments:
Test in all cases: relative viability (nuclei count vs DMSO), 5 days (fraction); higher = more cells survive
MK-2206 = compound: NC1(c2ccc(-c3nc4ccn5c(=O)[nH]nc5c4cc3-c3ccccc3)cc2)CCC1 [MK-2206]
Outline: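 Nuclei counted with MetaXpress define viability as the ratio of treated to vehicle wells, given as a median across plates. The lung cancer cell lines were in 1536-well plates, pinned with five √10-spaced library-drug doses and imaged at 4× after 5 days and Hoechst staining. Plates passed with control CV below 25% and at least one doubling.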

Pictilisib + Navitoclax = compound: CS(=O)(=O)N1CCN(Cc2cc3nc(-c4cccc5[nH]ncc45)nc(N4CCOCC4)c3s2)CC1 [Pictilisib] + CC1(C)CCC(c2ccc(Cl)cc2)=C(CN2CCN(c3ccc(C(=O)NS(=O)(=O)c4ccc(N[C@H](CCN5CCOCC5)CSc5ccccc5)c(S(=O)(=O)C(F)(F)F)c4)cc3)CC2)C1 [Navitoclax] (partner 0.5 µM)
Outline: (§1)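 Lung cancer cell lines, seeded in 1536-well plates, were treated the following day by pin tool with a single drug or with five library-drug doses (not always all listed) in √10 steps on top of a fixed anchor-drug dose. Cells were fixed and nuclei stained in one step after 5 days, and nuclei were counted. Relative viability is the nuclei count for treated wells divided by that for vehicle wells, reported as medians of duplicate plates.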

Pictilisib + Luminespib = compound: CS(=O)(=O)N1CCN(Cc2cc3nc(-c4cccc5[nH]ncc45)nc(N4CCOCC4)c3s2)CC1 [Pictilisib] + CCNC(=O)c1noc(-c2cc(C(C)C)c(O)cc2O)c1-c1ccc(CN2CCOCC2)cc1 [Luminespib] (partner 0.01 µM)
Outline: as §1

Pictilisib + Vorinostat = compound: CS(=O)(=O)N1CCN(Cc2cc3nc(-c4cccc5[nH]ncc45)nc(N4CCOCC4)c3s2)CC1 [Pictilisib] + O=C(CCCCCCC(=O)Nc1ccccc1)NO [Vorinostat] (partner 1 µM)
Outline: as §1

MK-2206 + Pemetrexed = compound: NC1(c2ccc(-c3nc4ccn5c(=O)[nH]nc5c4cc3-c3ccccc3)cc2)CCC1 [MK-2206] + Nc1nc2[nH]cc(CCc3ccc(C(=O)N[C@@H](CCC(=O)O)C(=O)O)cc3)c2c(=O)[nH]1 [Pemetrexed] (partner 0.2 µM)
Outline: as §1

| Cell Line | relative viability (MK-2206; 0.01 µM) | relative viability (MK-2206; 0.03162 µM) | relative viability (MK-2206; 0.3162 µM) | relative viability (MK-2206; 1 µM) | relative viability (Pictilisib + Navitoclax; first compound 0.02 µM) | relative viability (Pictilisib + Navitoclax; first compound 0.06325 µM) | relative viability (Pictilisib + Navitoclax; first compound 0.6325 µM) | relative viability (Pictilisib + Navitoclax; first compound 2 µM) | relative viability (Pictilisib + Luminespib; first compound 0.02 µM) | relative viability (Pictilisib + Luminespib; first compound 0.06325 µM) | relative viability (Pictilisib + Luminespib; first compound 0.6325 µM) | relative viability (Pictilisib + Luminespib; first compound 2 µM) | relative viability (Pictilisib + Vorinostat; first compound 0.02 µM) | relative viability (Pictilisib + Vorinostat; first compound 0.06325 µM) | relative viability (Pictilisib + Vorinostat; first compound 0.6325 µM) | relative viability (Pictilisib + Vorinostat; first compound 2 µM) | relative viability (MK-2206 + Pemetrexed; first compound 0.01 µM) | relative viability (MK-2206 + Pemetrexed; first compound 0.03162 µM) | relative viability (MK-2206 + Pemetrexed; first compound 0.3162 µM) | relative viability (MK-2206 + Pemetrexed; first compound 1 µM) |
| --- | --- | --- | --- | --- | --- | --- | --- | --- | --- | --- | --- | --- | --- | --- | --- | --- | --- | --- | --- | --- |
| NCI-H441 | 1.09 | 1.05 | 0.845 | 0.921 | 0.856 | 0.64 | 0.505 | 0.413 | 0.307 | 0.236 | 0.269 | 0.221 | 0.972 | 0.682 | 0.607 | 0.457 | 0.256 | 0.238 | 0.255 | 0.249 |
| NCI-H520 | 0.992 | 0.871 | 0.553 | 0.331 | 1.17 | 1.24 | 0.599 | 0.134 | 0.212 | 0.221 | 0.223 | 0.217 | 0.794 | 0.73 | 0.353 | 0.203 | 0.612 | 0.68 | 0.351 | 0.183 |
| CAL-12T | 0.939 | 1.06 | 1.07 | 0.953 | 1.29 | 1.24 | 1.2 | 1.07 | 0.452 | 0.249 | 0.339 | 0.143 | 0.755 | 0.664 | 0.629 | 0.283 | 1.12 | 1.07 | 1.28 | 1.06 |
| HCC-827 | 1.04 | 1.05 | 1.05 | 0.932 | 1.11 | 0.978 | 1.02 | 0.865 | 1.01 | 0.472 | 0.224 | 0.152 | 0.827 | 0.811 | 0.829 | 0.559 | 0.272 | 0.242 | 0.268 | 0.274 |
| LC-2-ad | 0.969 | 1.05 | 0.994 | 0.876 | 0.606 | 0.415 | 0.17 | 0.143 | 1.17 | 1.07 | 0.757 | 0.607 | 0.699 | 0.779 | 0.466 | 0.447 | 0.282 | 0.254 | 0.28 | 0.25 |
| NCI-H2170 | 0.93 | 1.03 | 0.923 | 0.877 | 0.619 | 0.487 | 0.452 | 0.231 | 0.715 | 0.65 | 0.419 | 0.166 | 0.856 | 0.822 | 0.611 | 0.304 | 0.246 | 0.264 | 0.286 | 0.24 |
| SW 1573 | 0.997 | 1.03 | 0.773 | 0.782 | 0.804 | 0.951 | 0.742 | 0.348 | 0.185 | 0.196 | 0.187 | 0.189 | 0.767 | 0.733 | 0.35 | 0.217 | 0.782 | 0.793 | 0.726 | 0.713 |
| SK-MES-1 | 0.959 | 1.02 | 0.954 | 0.887 | 1.21 | 1.19 | 0.89 | 0.431 | 0.748 | 0.702 | 0.279 | 0.219 | 1.11 | 1.12 | 0.856 | 0.511 | 0.881 | 0.938 | 0.899 | 0.816 |
| NCI-H1648 | 0.873 | 1.06 | 1.06 | 1.05 |  |  |  |  |  |  |  |  | 0.393 | 0.378 | 0.239 | 0.19 | 0.719 | 0.651 | 0.691 | 0.786 |
| NCI-H1793 | 0.979 | 1.04 | 0.887 | 0.743 | 0.397 | 0.388 | 0.308 | 0.171 | 0.152 | 0.189 | 0.152 | 0.168 | 0.712 | 0.724 | 0.379 | 0.243 | 0.908 | 0.863 | 0.844 | 0.783 |
| NCI-H1299 | 1.02 | 1.02 | 1.04 | 1.01 | 1.09 | 1.05 | 1.1 | 1.13 |  |  |  |  |  |  |  |  |  |  |  |  |
| LCLC-97TM1 | 0.941 | 1.05 | 0.968 | 0.829 | 0.288 | 0.768 | 0.221 | 0.107 | 0.751 | 0.867 | 0.442 | 0.224 | 0.712 | 0.658 | 0.619 | 0.212 | 0.186 | 0.138 | 0.146 | 0.189 |
| NCI-H1915 | 1 | 1.06 | 0.967 | 0.95 | 0.811 | 0.789 | 0.797 | 0.789 | 0.784 | 0.864 | 0.699 | 0.642 | 0.537 | 0.521 | 0.536 | 0.403 | 0.487 | 0.42 | 0.473 | 0.494 |
| NCI-H661 | 0.997 | 1.02 | 1.03 | 1.01 |  |  |  |  | 0.969 | 0.938 | 0.953 | 0.813 | 0.857 | 0.826 | 0.936 | 0.745 | 0.986 | 0.91 | 0.876 | 0.877 |
| NCI-H2405 | 1.02 | 1.03 | 0.968 | 0.839 | 0.981 | 0.871 | 0.594 | 0.5 | 0.694 | 0.611 | 0.416 | 0.235 | 1.26 | 1.06 | 0.842 | 0.432 | 1.01 | 1.07 | 1.02 | 0.978 |
| NCI-H2347 | 0.952 | 0.997 | 0.997 | 0.945 | 0.865 | 0.874 | 0.75 | 0.528 | 0.444 | 0.518 | 0.423 | 0.264 | 0.669 | 0.607 | 0.416 | 0.321 | 0.408 | 0.44 | 0.433 | 0.45 |
